Data from patent US20210275624A1, “TREATMENTS FOR IMPROVING OR LESSENING IMPAIRMENT OF MITOCHONDRIAL FUNCTION” (priority 2020, published 2021).
Square brackets hold non-standard residues; d marks the D form. Peptide text beside a SMILES is read from it. Cya = N[C@@H](CS(=O)(=O)O)C(=O)O

Test system: human RPE cells
Type: cell-based
Settings: RSG 0.4 mM co-treatment with HQ 175 μM, 1.5 hours, vs HQ-treated cells
Experimental: RPE cells were seeded in triplicate wells of collagen-coated XF 24-well plates and grown for 24 hours. RPE cells that had just reached confluence were washed with SF-MEM and treated for 1.5 hours with HQ (175 μM) with or without RSG (0.4 mM). Media were removed and cells were washed with XF base medium containing 1 mM sodium pyruvate, 2 mM glutamine and 8 mM glucose, pH 7.4. The cells were incubated for 1 hour at 37° C. in a C02-free incubator. Oxygen consumption rate (OCR) was measured by Seahorse XFe24 flux analyzer under basal conditions followed by the sequential addition of 1 μM oligomycin, 1 μM tri-fluorocarbonylcyanide phenylhydrazone (FCCP), and 1 μM rotenone and antimycin A. Maximal OCR was the difference in OCR between FCCP-induced respiration and OCR after injection of antimycin A. Mitochondrial spare respiratory capacity was the difference between maximal respiration and basal OCR. Media were removed and the total proteins were extracted for BCA protein assay after OCR measurements. OCRs were normalized to total protein content.

SMILES: C[C@@H](O)[C@H](NC(=O)[C@H](CS(=O)(=O)O)NC(=O)CNC(=O)[C@H](CCCNC(=N)N)NC(=O)CN)C(=O)N1CCC[C@H]1C(=O)O [Risuteganib, Glycyl-L-arginylglycyl-3-sulfo-L-alanyl-L-threonyl-L-proline] (H-GRG[Cya]TP-OH)
- ATP production: significantly increased
- spare respiratory capacity: significantly increased
